Test results: US20200207759A1, “NEW PROPANAMINE DERIVATIVES FOR TREATING PAIN AND PAIN RELATED CONDITIONS” (ESTEVE PHARMACEUTICALS, S.A., priority 2017, published 2020)

Experiments:
[1] = target: Human α2δ-1 subunit of Cav2.2 calcium channel (Homo sapiens, UniProt P54289); assay: Binding assay to human α2δ-1 subunit of Cav2.2 calcium channel, [3H]-Gabapentin; settings: human α2δ-1 enriched membranes, 15 nM [3H]-Gabapentin; read-out: Ki (nM) alpha2delta Hum
Protocol: Binding Assay to Human α2δ-1 Subunit of Cav2.2 Calcium Channel.
Human α2δ-1 enriched membranes (2.5 μg) were incubated with 15 nM of radiolabeled [3H]-Gabapentin in assay buffer containing Hepes-KOH 10 mM, pH 7.4.
(§1) NSB (non specific binding) was measured by adding 10 μM pregabalin. After 60 min incubation at 27° C., binding reaction was terminated by filtering through Multiscreen GF/C (Millipore) presoaked in 0.5% polyethyleneimine in Vacuum Manifold Station, followed by 3 washes with ice-cold filtration buffer containing 50 mM Tris-HCl, pH 7.4.
Filter plates were dried at 60° C. for 1 hour and 30 μl of scintillation cocktail were added to each well before radioactivity reading.
Readings were performed in a Trilux 1450 Microbeta radioactive counter (Perkin Elmer).

[2] = target: Human norepinephrine transporter (NET) (Homo sapiens, UniProt P23975); assay: Binding assay to human norepinephrine transporter (NET), [3H]-Nisoxetin; settings: human NET enriched membranes, 5 nM [3H]-Nisoxetin; read-out: Ki (nM) NET Hum
Protocol: Binding Assay to Human Norepinephrine Transporter (NET).
Human norepinephrine transporter (NET) enriched membranes (5 μg) were incubated with 5 nM of radiolabeled [3H]-Nisoxetin in assay buffer containing 50 mM Tris-HCl, 120 mM NaCl, 5 mM KCl, pH 7.4.
as §1, with “1 μM.” for “10 μM pregabalin.”, “4°” for “27°”, “Tris-HCl, 0.9% NaCl,” for “Tris-HCl,”, “7.4. Filter plates were dried at 60° C. for 1 hour and 30 μl of scintillation cocktail were added to each well before radioactivity reading.” for “7.4.”

Sequence of Human norepinephrine transporter (NET) (P23975 whole entry): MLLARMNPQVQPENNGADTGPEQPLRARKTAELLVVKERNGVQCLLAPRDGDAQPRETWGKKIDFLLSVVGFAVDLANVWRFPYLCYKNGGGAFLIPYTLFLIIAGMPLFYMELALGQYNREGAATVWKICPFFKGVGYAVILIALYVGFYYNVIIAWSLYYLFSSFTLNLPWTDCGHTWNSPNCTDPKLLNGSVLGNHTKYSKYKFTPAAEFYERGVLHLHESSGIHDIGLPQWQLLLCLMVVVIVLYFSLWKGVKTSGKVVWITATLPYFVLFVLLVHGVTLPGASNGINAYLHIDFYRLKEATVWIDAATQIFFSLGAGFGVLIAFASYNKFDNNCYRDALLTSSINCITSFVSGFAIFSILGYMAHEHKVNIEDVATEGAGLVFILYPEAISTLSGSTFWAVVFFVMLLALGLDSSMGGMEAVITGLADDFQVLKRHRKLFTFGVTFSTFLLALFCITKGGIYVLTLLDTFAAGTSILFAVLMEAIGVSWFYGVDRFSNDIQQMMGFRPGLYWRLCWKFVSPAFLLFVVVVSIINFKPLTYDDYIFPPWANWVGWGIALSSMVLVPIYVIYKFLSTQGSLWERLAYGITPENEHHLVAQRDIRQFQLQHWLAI
Sequence of Human α2δ-1 subunit of Cav2.2 calcium channel (P54289 25-1103): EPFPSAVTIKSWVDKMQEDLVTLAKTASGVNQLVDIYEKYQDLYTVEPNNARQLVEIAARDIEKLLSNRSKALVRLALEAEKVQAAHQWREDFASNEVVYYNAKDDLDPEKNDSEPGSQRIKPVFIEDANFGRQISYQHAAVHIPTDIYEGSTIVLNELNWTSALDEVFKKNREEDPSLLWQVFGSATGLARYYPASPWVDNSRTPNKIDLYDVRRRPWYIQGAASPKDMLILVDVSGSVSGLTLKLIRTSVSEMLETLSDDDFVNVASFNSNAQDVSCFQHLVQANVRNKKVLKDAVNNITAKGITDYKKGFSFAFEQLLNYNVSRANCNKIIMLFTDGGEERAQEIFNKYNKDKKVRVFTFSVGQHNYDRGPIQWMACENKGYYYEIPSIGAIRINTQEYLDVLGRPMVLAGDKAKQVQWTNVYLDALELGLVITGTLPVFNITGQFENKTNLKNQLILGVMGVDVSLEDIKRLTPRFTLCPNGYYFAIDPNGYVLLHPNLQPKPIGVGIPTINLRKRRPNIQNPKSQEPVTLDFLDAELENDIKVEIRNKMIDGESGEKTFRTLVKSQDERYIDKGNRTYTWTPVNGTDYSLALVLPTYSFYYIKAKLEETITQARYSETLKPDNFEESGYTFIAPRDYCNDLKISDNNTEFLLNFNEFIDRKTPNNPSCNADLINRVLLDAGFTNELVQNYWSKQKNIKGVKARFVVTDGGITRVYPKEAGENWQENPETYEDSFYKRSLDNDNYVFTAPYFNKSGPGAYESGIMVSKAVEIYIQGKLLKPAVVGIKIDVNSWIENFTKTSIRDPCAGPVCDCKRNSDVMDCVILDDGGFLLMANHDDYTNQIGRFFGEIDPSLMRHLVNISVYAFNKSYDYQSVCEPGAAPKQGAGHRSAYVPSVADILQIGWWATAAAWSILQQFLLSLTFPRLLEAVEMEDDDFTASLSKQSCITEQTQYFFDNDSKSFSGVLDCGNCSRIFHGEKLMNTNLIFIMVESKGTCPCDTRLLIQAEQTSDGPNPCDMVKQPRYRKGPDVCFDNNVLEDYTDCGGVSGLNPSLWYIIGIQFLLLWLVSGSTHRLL

Row | Compound | Ki [1] [nM] | Ki [2] [nM]
1 | CNCCC(c1ccsc1)N1CCc2ccccc21 (racemic) [Example 78, 3-(Indolin-1-yl)-N-methyl-3-(thiophen-3-yl)propan-1-amine] | ≥ 3000 | < 100
2 | CNCC[C@H](c1ccsc1)N1CC(C)(C)c2nc(C(F)(F)F)ccc21 (racemic) [Example 79, 3-(3,3-Dimethyl-5-(trifluoromethyl)-2,3-dihydro-1H-pyrrolo[3,2-b]pyridin-1-yl)-N-methyl-3-(thiophen-3-yl)propan-1-amine] | 100 to 500 | > 1000
3 | CNCCC(c1ccsc1)N1CC(C)(C)c2ncc(Cl)cc21 (racemic) [Example 80, 3-(6-Chloro-3,3-dimethyl-2,3-dihydro-1H-pyrrolo[3,2-b]pyridin-1-yl)-N-methyl-3-(thiophen-3-yl)propan-1-amine] | 100 to 500 | > 1000
4 | CNCCC(c1cccs1)N1CC(C)(C)c2ncc(C)cc21 (racemic) [Example 81, N-methyl-3-(thiophen-2-yl)-3-(3,3,6-trimethyl-2,3-dihydro-1H-pyrrolo[3,2-b]pyridin-1-yl)propan-1-amine] | < 100 | > 1000
5 | CCC1(CC)CN(C(CCNC)c2ccsc2)c2cccnc21 (racemic) [Example 86, 3-(3,3-Diethyl-2,3-dihydro-1H-pyrrolo[3,2-b]pyridin-1-yl)-N-methyl-3-(thiophen-3-yl)propan-1-amine] | 500 to 3000 | > 1000
6 | CNCC[C@@H](c1cccs1)N1c2ccccc2C[C@@H]1C (racemic) [Example 119, (S/R)—N-methyl-3-((S/R)-2-methylindolin-1-yl)-3-(thiophen-2-yl)propan-1-amine] | ≥ 3000 | > 1000
7 | CNCCC(c1cccs1)N1CCc2ccccc21 (centres unmarked) [Example 1, 3-(Indolin-1-yl)-N-methyl-3-(thiophen-2-yl)propan-1-amine] | 500 to 3000 | < 100
8 | CNCCC(c1cccs1)N1CCc2ccncc21 (centres unmarked) [Example 2, 3-(2,3-Dihydro-1H-pyrrolo[2,3-c]pyridin-1-yl)-N-methyl-3-(thiophen-2-yl)propan-1-amine] | 500 to 3000 | > 1000
9 | CNCCC(c1cccs1)N1CCc2ncccc21 (centres unmarked) [Example 3, 3-(2,3-Dihydro-1H-pyrrolo[3,2-b]pyridin-1-yl)-N-methyl-3-(thiophen-2-yl)propan-1-amine] | 500 to 3000 | 500 to 1000
10 | CNCCC(c1cccs1)N1CCCc2ccccc21 (centres unmarked) [Example 4, 3-(3,4-Dihydroquinolin-1(2H)-yl)-N-methyl-3-(thiophen-2-yl)propan-1-amine] | ≥ 3000 | 100 to 500
11 | CNCCC(c1cccs1)N1CCCc2ncccc21 (centres unmarked) [Example 5, 3-(3,4-Dihydro-1,5-naphthyridin-1(2H)-yl)-N-methyl-3-(thiophen-2-yl)propan-1-amine] | 100 to 500 | > 1000
12 | CNCCC(c1ccc(F)s1)N1CCc2ncccc21 (centres unmarked) [Example 6, 3-(2,3-Dihydro-1H-pyrrolo[3,2-b]pyridin-1-yl)-3-(5-fluorothiophen-2-yl)-N-methylpropan-1-amine] | 500 to 3000 | 500 to 1000
13 | CNCCC(c1ccccc1)N1CCc2ncccc21 (centres unmarked) [Example 7, 3-(2,3-Dihydro-1H-pyrrolo[3,2-b]pyridin-1-yl)-N-methyl-3-phenylpropan-1-amine] | ≥ 3000 | 500 to 1000
14 | CCNCCC(c1cccs1)N1CCc2ncccc21 (centres unmarked) [Example 8, 3-(2,3-Dihydro-1H-pyrrolo[3,2-b]pyridin-1-yl)-N-ethyl-3-(thiophen-2-yl)propan-1-amine] | 100 to 500 | > 1000
15 | NCCC(c1cccs1)N1CCc2ncccc21 (centres unmarked) [Example 9, 3-(2,3-Dihydro-1H-pyrrolo[3,2-b]pyridin-1-yl)-3-(thiophen-2-yl)propan-1-amine] | ≥ 3000 | > 1000
16 | CNCCC(c1ccsc1)N1CCc2ncccc21 (centres unmarked) [Example 10, 3-(2,3-Dihydro-1H-pyrrolo[3,2-b]pyridin-1-yl)-N-methyl-3-(thiophen-3-yl)propan-1-amine] | 100 to 500 | 100 to 500
17 | CNCCC(c1cccs1)N1CCc2nc(C)ccc21 (centres unmarked) [Example 11, N-methyl-3-(5-methyl-2,3-dihydro-1H-pyrrolo[3,2-b]pyridin-1-yl)-3-(thiophen-2-yl)propan-1-amine] | 100 to 500 | 500 to 1000
18 | CNCCC(c1cccs1)N1CC(C)(C)c2ncccc21 (centres unmarked) [Example 12, 3-(3,3-Dimethyl-2,3-dihydro-1H-pyrrolo[3,2-b]pyridin-1-yl)-N-methyl-3-(thiophen-2-yl)propan-1-amine] | 100 to 500 | 500 to 1000
19 | CNCCC(c1ccsc1)N1CC(C)(C)c2ncccc21 (centres unmarked) [Example 13, 3-(3,3-Dimethyl-2,3-dihydro-1H-pyrrolo[3,2-b]pyridin-1-yl)-N-methyl-3-(thiophen-3-yl)propan-1-amine] | 500 to 3000 | 500 to 1000
20 | CNCCC(c1ccsc1)N1CCc2ncc(C)cc21 (centres unmarked) [Example 14, N-methyl-3-(6-methyl-2,3-dihydro-1H-pyrrolo[3,2-b]pyridin-1-yl)-3-(thiophen-3-yl)propan-1-amine] | 100 to 500 | 500 to 1000
21 | CN(C)CCC(c1cccs1)N1CCc2ncccc21 (centres unmarked) [Example 15, 3-(2,3-Dihydro-1H-pyrrolo[3,2-b]pyridin-1-yl)-N,N-dimethyl-3-(thiophen-2-yl)propan-1-amine] | ≥ 3000 | > 1000
22 | CNCC[C@@H](c1cccs1)N1CCc2ncccc21 [Example 16, (S)-3-(2,3-Dihydro-1H-pyrrolo[3,2-b]pyridin-1-yl)-N-methyl-3-(thiophen-2-yl)propan-1-amine] | 100 to 500 | 100 to 500
23 | CNCC[C@H](c1cccs1)N1CCc2ncccc21 [Example 17, (R)-3-(2,3-dihydro-1H-pyrrolo[3,2-b]pyridin-1-yl)-N-methyl-3-(thiophen-2-yl)propan-1-amine] | 500 to 3000 | 100 to 500
24 | CNCC[C@H](c1ccc(F)s1)N1CCc2ncccc21 [Example 18, (R)-3-(2,3-Dihydro-1H-pyrrolo[3,2-b]pyridin-1-yl)-3-(5-fluorothiophen-2-yl)-N-methylpropan-1-amine] | 500 to 3000 | 500 to 1000
25 | CNCC[C@@H](c1ccc(F)s1)N1CCc2ncccc21 [Example 19, (S)-3-(2,3-dihydro-1H-pyrrolo[3,2-b]pyridin-1-yl)-3-(5-fluorothiophen-2-yl)-N-methylpropan-1-amine] | 100 to 500 | 500 to 1000
26 | CCNCCC(c1cccs1)N1CC(C)(C)c2ncc(C#N)cc21 (centres unmarked) [Example 101, 1-(3-(Ethylamino)-1-(thiophen-2-yl)propyl)-3,3-dimethyl-2,3-dihydro-1H-pyrrolo[3,2-b]pyridine-6-carbonitrile] | < 100 | 
27 | CNCC[C@@H](c1cccs1)N1CC(C)(C)c2ncc(C#N)cc21 [Example 115, (S)-3,3-Dimethyl-1-(3-(methylamino)-1-(thiophen-2-yl)propyl)-2,3-dihydro-1H-pyrrolo[3,2-b]pyridine-6-carbonitrile] | < 100 | 
28 | CNCC[C@H](c1cccs1)N1CC(C)(C)c2ncc(C#N)cc21 [Example 116, (R)-3,3-dimethyl-1-(3-(methylamino)-1-(thiophen-2-yl)propyl)-2,3-dihydro-1H-pyrrolo[3,2-b]pyridine-6-carbonitrile] | 500 to 3000 | 
